“And” between values parts separate entries of the source, which are not always exact repeats. Equal entries are not always repeated. “Also recorded” adds a separate entry of the source.
What was measured:
[1] = Example 3: growth performance, graded doses of dietary T3; format: in vivo, broiler cockerels; conditions: for Average Daily Gain: week no. 5 to 7
Procedure: (§1) Day-old broiler cockerels were randomly assigned to 24 pens (5 birds/pen) in a battery brooder. The total duration of the bird management period lasted from 7 to 8 weeks. Hereafter, the end of the first week of life of the birds is referred to as week no. 1 (i.e. 7 days of life), the end of the second week as week no. 2, etc. At week no. 3, four birds from each pen were transferred to wire grow-out cages. […] 5 to week no. 7 (4 pens/treatment). Body weight and feed consumption were determined at weekly intervals. A 5 ml blood sample was obtained from each bird at week no. 7 and stored at -20° C. until assayed for plasma hormones.
Data were analyzed by analysis of variance for a randomized complete-block design. Data for ADG, ADFC and FTG were based on pen average. Unless otherwise indicated, data used for analysis was obtained from individual birds. Difference among treatments were tested by Fisher's protected LSD method.

[2] = Example 3: final body weight and relative weights of liver, abdominal fat and muscles; format: in vivo, broiler cockerels
Procedure: as §1
(§2) At week no. 7 (49 days-of-age), one-half of the birds (8 birds/treatment) were killed for measurement of the abdominal fat pad and liver weights. The muscles were removed, weighed, frozen in liquid N2 and stored at -20° C. until analyzed. At 51 days-of-age, groups of 4 birds per treatment were given a subcutaneous infusion of 4 μCi/Kg of 14C-L-tyrosine emulsified in sesame seed oil and immediately placed in metabolism cages. The expired CO2 was trapped in 15 ml of scrubbing solution (1:2 ethanolamine/methyl cellusolve) and the tubes were changed every 15 minutes for 90 minutes. At 90 minutes, the birds were removed from the metabolism cages and blood was obtained via cardiac puncture. Birds were then sacrificed by cervical dislocation and the muscles were removed, weighed, frozen in liquid N2 and stored at -20° C. until analyzed. Radioactivity in the samples containing trapped CO2 was counted for 10 minutes using a liquid scintillation spectrophotometer. At 54 days-of-age, groups of 4 birds per treatment were killed, the muscles were dissected, weighed, and frozen until analyzed.
(§3) The right breast muscle, i.e. BM (Pectoralis major) and right leg muscles, i.e. LM (gastrocnemius and peroneus longus) were dissected out from the birds, weighed and immediately frozen in liquid nitrogen and stored at -20° C. until analyzed for tyrosine content as specific radioactivity of tyrosine. All muscle tissues were analyzed for protein content; only tissues from isotope experiments were analyzed for tyrosine content as specific radioactivity of tyrosine.

[3] = Example 3: muscle protein turnover (14C-L-tyrosine infusion); format: in vivo, broiler cockerels
Procedure: as §2, §3
FAR of breast muscle and leg muscles were estimated from regression of total muscle protein on age. Total muscle protein was determined by multiplying the muscle weight by protein content. Protein content was determined by the Biuret method. The slope obtained by linear regression was the absolute rate of protein accretion (g/d). The FAR (%/d) was calculated by dividing the absolute accretion rate by the average muscle protein at 51 days-of-age. The FSR (ks) was calculated according to the equation described by Garlick et al., Biochem. J. 136:935 (1973). Protein-bound tyrosine in muscle tissue was separated from free tyrosine according to the procedures of Laurent et al. Biochem. J. 176:419 (1978) with some modification. Approximately 1 g of muscle tissue was homogenized with 5 ml cold distilled water and washed with 15 ml of cold 5% trichloroacetic acid (TCA). The homogenate was then centrifuged for 15 min at 4000×g. The supernatant containing the free tyrosine was poured off and the TCA was extracted with 15 ml of diethyl ether. The supernatant was concentrated to dryness. The dried sample was dissolved in 5 ml of distilled water and stored at 4° C. until analyzed for tyrosine content and the specific radioactivity of tyrosine.
The pellet was extracted with 15 ml of hot 5% TCA, 15 ml of 3:1 ethanol/diethyl ether (v/v) and 20 ml of diethyl ether. The washed pellet was then placed in a 25×150 mm test tube with screw cap and hydrolyzed in 15 ml of 6N hydrochloric acid (HCl) for 16 hours at 125° C. The hydrolysate was concentrated to dryness. The dried sample was dissolved in 5 ml of distilled water and stored at 4° C. until analyzed for tyrosine content and specific radioactivity of tyrosine.
Tyrosine content in free tyrosine (supernatant) and the protein-bound fraction (hydrolysate) was analyzed according to the method of Udenfriend et al, J. Biol. Sci. 196:227 (1952).
The specific radioactivity of tyrosine in the protein-bound fraction (hydrolysate) and in the free tyrosine (supernatant) was analyzed using the method described by Schaefer et al, Can. J. Anim. Sci. 62:1223 (1982). One ml of the samples were added into 10 ml of aquasol and counted for 10 minutes in a liquid scintillation spectrophotometer.

[4] = exogenous; cited from earlier work
[5] = plasma thyroid hormone bioactivity 360-1200% of normal

For `N[C@@H](Cc1cc(I)c(Oc2ccc(O)c(I)c2)c(I)c1)C(=O)O` [T3, 3,3',5-triiodo-L-thyronine], which “effect on ADFC and GTF” value ([1]; 0.25 and 1.0 ppm) is on record?
Its value is “did not affect the ADFC and GTF”.

What about the “effect on ADG” value ([1]; 0.25 ppm) of the same molecule?
The value was “the decrease in 0.25 ppm-fed birds was not significant”.

And the “Average Daily Feed Consumption” value ([1]; 0.25 ppm of feed)?
Its value is 150.2 ± 10.0 g.

What about the “Gain-To-Feed Ratio” value ([1]; 0.25 ppm of feed) of the same molecule?
The value was 0.441 ± .014.

What about the “Average Daily Gain” value ([1]; 0.25 ppm of feed) of the same molecule?
Its value is 66.5 ± 6.0 g.

And the “Average Daily Feed Consumption” value ([1]; 1.0 ppm of feed)?
The value was 139.0 ± 4.6 g.

What about the “Gain-To-Feed Ratio” value ([1]; 1.0 ppm of feed) of the same molecule?
Its value is 0.409 ± 0.01.

What about the “Average Daily Gain” value ([1]; 1.0 ppm of feed) of the same molecule?
The value was 57.0 ± 3.0 g.

And the “ADFC, reduction” value ([1]; 4.0 ppm (p<0.05))?
The value was 35%.

What about the “gain to feed ratio (GTF), reduction” value ([1]; 4.0 ppm (p<0.05)) of the same molecule?
The value was 33%.

What about the “Average Daily Feed Consumption” value ([1]; 4.0 ppm of feed) of the same molecule?
The value was 99.5 ± 1.7 g.

And the “Gain-To-Feed Ratio” value ([1]; 4.0 ppm of feed)?
The value was 0.302 ± .013.

What about the “Average Daily Gain” value ([1]; 4.0 ppm of feed) of the same molecule?
Its value is 30.0 ± 1.1 g.

What about the “body weight gain, depression” value [1, 5] of the same molecule?
Its value is at most 57%.

And the “feed consumption, depression” value [1, 5]?
Its value is at most 35%.

And the “relative weights of liver (RLW), right breast muscle (RBM), right leg muscle (RLM)” value ([2]; 0, 0.25, 1 and 4 ppm)?
Its value is “not different among treatments”.

What about the “abdominal fat weight, reduction” value ([2]; 0.25 ppm) of the same molecule?
The value was 22.2% and > 20% and 22%.

What about the “effect on final body weight” value ([2]; 0.25 ppm) of the same molecule?
The value was “no significant adverse effect in final body weight; also recorded: do not appear to have a statistically significant effect upon final body weight”.

What about the “BW (final body weight)” value ([2]; 0.25 ppm of feed) of the same molecule?
The value was 2.42 kg.

What about the “RBM (right breast muscle)” value ([2]; 0.25 ppm of feed) of the same molecule?
Its value is 5.60 % BW.

And the “RLM (right leg muscle)” value ([2]; 0.25 ppm of feed)?
Its value is 0.71 % BW.

And the “RLW (relative liver weight)” value ([2]; 0.25 ppm of feed)?
The value was 2.24 % BW.

And the “effect on final body weight” value ([2]; 1.0 ppm)?
The value was “significant sacrifice of final body weight”.

What about the “abdominal fat weight, reduction” value ([2]; 1.0 ppm (p<0.05)) of the same molecule?
Its value is 26.6%.

What about the “Abdom. Fat” value ([2]; 1.0 ppm of feed) of the same molecule?
Its value is 1.88 % BW.

And the “BW (final body weight)” value ([2]; 1.0 ppm of feed)?
The value was 2.33 kg.

What about the “RBM (right breast muscle)” value ([2]; 1.0 ppm of feed) of the same molecule?
Its value is 5.36 % BW.

What about the “RLM (right leg muscle)” value ([2]; 1.0 ppm of feed) of the same molecule?
Its value is 0.76 % BW.

What about the “RLW (relative liver weight)” value ([2]; 1.0 ppm of feed) of the same molecule?
Its value is 2.14 % BW.

What about the “effect on final body weight” value ([2]; 4.0 ppm) of the same molecule?
The value was “excessive loss of final body weight”.

And the “abdominal fat weight, reduction” value ([2]; 4.0 ppm (p<0.05))?
The value was 63.3%.

What about the “final body weight, reduction” value ([2]; 4.0 ppm (p<0.05)) of the same molecule?
Its value is 22.2%.

And the “Abdom. Fat” value ([2]; 4.0 ppm of feed)?
Its value is 0.94 % BW.

And the “BW (final body weight)” value ([2]; 4.0 ppm of feed)?
The value was 1.99 kg.

And the “RBM (right breast muscle)” value ([2]; 4.0 ppm of feed)?
The value was 5.81 % BW.

And the “RLM (right leg muscle)” value ([2]; 4.0 ppm of feed)?
Its value is 0.75 % BW.

What about the “RLW (relative liver weight)” value ([2]; 4.0 ppm of feed) of the same molecule?
Its value is 2.18 % BW.

And the “overall protein turnover rate of breast muscle” value ([3]; 0.25 ppm)?
Its value is “did not differ from that of control birds”.

And the “protein accretion in breast and leg muscle, increase” value ([3]; 0.25 ppm)?
Its value is 45-88%.

And the “FAR, Leg muscles” value ([3]; 0.25 ppm of feed)?
The value was 9.3 %/d.

And the “FAR, Pectoralis major (breast muscle)” value ([3]; 0.25 ppm of feed)?
Its value is 4.9 %/d.

And the “FRD (fractional degradation rate), Leg muscles” value ([3]; 0.25 ppm of feed)?
Its value is 13.6 %/d.

What about the “FRD (fractional degradation rate), Pectoralis major” value ([3]; 0.25 ppm of feed) of the same molecule?
Its value is 12.3 %/d.

And the “FSR, Leg muscles” value ([3]; 0.25 ppm of feed)?
Its value is 22.0 ± 2.1 %/d.

What about the “FSR, Pectoralis major” value ([3]; 0.25 ppm of feed) of the same molecule?
Its value is 17.2 ± 1.3 %/d.

What about the “FAR of leg muscle, increase” value ([3]; 0.25 ppm, vs control group) of the same molecule?
The value was 45%.

And the “FAR of pectoralis major (breast muscle), increase” value ([3]; 0.25 ppm, vs control group)?
Its value is 88%.

What about the “effect on protein synthesis rate in breast muscle” value ([3]; 0.25 to 1 ppm) of the same molecule?
The value was “only a slight effect upon protein synthesis rate in breast muscle”.

And the “FAR, Leg muscles” value ([3]; 1.0 ppm of feed)?
The value was -2.0 %/d.

What about the “FAR, Pectoralis major (breast muscle)” value ([3]; 1.0 ppm of feed) of the same molecule?
The value was -4.5 %/d.

What about the “FRD (fractional degradation rate), Leg muscles” value ([3]; 1.0 ppm of feed) of the same molecule?
Its value is 24.1 %/d.

And the “FRD (fractional degradation rate), Pectoralis major” value ([3]; 1.0 ppm of feed)?
Its value is 22.7 %/d.

What about the “FSR, Leg muscles” value ([3]; 1.0 ppm of feed) of the same molecule?
The value was 22.1 ± 1.9 %/d.

What about the “FSR, Pectoralis major” value ([3]; 1.0 ppm of feed) of the same molecule?
The value was 18.2 ± 1.7 %/d.

What about the “fractional degradation rate of breast muscle, increase” value ([3]; 4 ppm) of the same molecule?
Its value is 116%.

What about the “FSR of protein in breast muscle, increase” value ([3]; 4.0 ppm (p<0.05)) of the same molecule?
Its value is 55.7% and 56%.

What about the “FAR, Leg muscles” value ([3]; 4.0 ppm of feed) of the same molecule?
Its value is 5.0 %/d.

What about the “FAR, Pectoralis major (breast muscle)” value ([3]; 4.0 ppm of feed) of the same molecule?
The value was -3.8 %/d.

And the “FRD (fractional degradation rate), Leg muscles” value ([3]; 4.0 ppm of feed)?
The value was 18.4 %/d.

What about the “FRD (fractional degradation rate), Pectoralis major” value ([3]; 4.0 ppm of feed) of the same molecule?
The value was 28.1 %/d.

What about the “FSR, Leg muscles” value ([3]; 4.0 ppm of feed) of the same molecule?
The value was 23.4 ± 0.8 %/d.

What about the “FSR, Pectoralis major” value ([3]; 4.0 ppm of feed) of the same molecule?
Its value is 24.3 ± 1.4 %/d.

And the “accretion of certain muscle protein (particularly breast muscle)” value [3, 5]?
Its value is “decreased”.

What about the “growth deficit of hypophysectomized chickens” value [4] of the same molecule?
Its value is “correct the growth deficit”.

Source: patent US5168102A, “Endocrine manipulation to improve body composition of poultry” (priority 1990, dated 1992)
